“And” between values parts separate entries of the source, which are not always exact repeats. Equal values may be shown once. Read-outs that look alike come from different tables or passages of the source.
System: SARS-CoV-2 (VIDO)
Format: cell-based
Parameters: plaque assay titre, Figure 2c: unit not given beside the values
Settings: for reduction of viral titre (plaque assay): supernatant of infected Calu-3 cells, vs DMSO-treated infected control; for plaque assay titre, Figure 2c: replicate columns

## CS(=O)(=O)NC(CCC(N)=O)C(=O)NC(Cc1ccccc1)C(=O)NC(CCCNC(=N)N)C(=O)c1nc2ccccc2s1 (stereo not shown) [Compound N-0385, Ms-QFR-kbt]
40 nM
  reduction of viral titre (plaque assay): ~2 log
  plaque assay titre, Figure 2c: 1000 (11×) and 22000 (2×) and 33000 and 132000 and 10000 (2×) and 33333
200 nM
  reduction of viral titre (plaque assay): ~2 log
  plaque assay titre, Figure 2c: 1000 (8×) and 10000 (6×) and 20000 (2×) and 11111 and 40000 and 30000
